Results: patent US20070173535A1, “Oxadiazoles having antiproliferative activity” (priority 2002, published 2007)

Columns and labels:
[1] = test system: Leukemia; test: NCI GI50 on tumor cells, leukemia; format: cell-based, human; settings: Leukemia cell lines; NA = inactive products
Protocol: (§1) Biological assays were carried out at the National Cancer Institute according to known experimental protocols [(a) Monks A., Scudiero D., Skehan P., Shoemaker R., Paull K., Vistica D., Hose C., Langley J., Cronise P., Vaigro-Wolff A., Gray-Goodrich M., Campbell H., Mayo J., Boyd M., J. Natl. Cancer Inst., 83, 757-766 (1991). (b) Paull K. D., Shoemaker R. H., Hods L., Monks A., Scudiero D. A., Rubinstein L., Plowman J., Boyd M. R., J. Natl. Cancer Inst., 81, 1088-1092 (1989). (c) Boyd M. R., Paull K. D., Rubinstein L. R., Cytotoxic Anticancer Drugs: Models and Concept for Drug discovery, Valeriote F. A., Corbett T., Baker L., Eds., Kluwer Academic Publishers: Amsterdam, 1992, pp. 11].

[2] = test system: 60 human tumor cell lines; test: NCI primary screening on 60 human tumor cell lines, mean over various tumor cells; format: cell-based; settings: for GI50 Mean: mean over the tumor cell panels, NA = inactive products; for antiproliferative activity: in words, in both cases (three-cell-line preliminary tests and various tumor cells)
Protocol: The cytotoxic activity of compounds (I) was evidenced in primary screening studies on 60 human tumor cell lines.
as §1

[3] = test system: SNC; test: NCI GI50 on tumor cells, SNC; format: cell-based, human; settings: SNC cell lines; NA = inactive products
Protocol: as §1

[4] = test system: Breast; test: NCI GI50 on tumor cells, breast; format: cell-based, human; settings: Breast cell lines; NA = inactive products
Protocol: as §1

[5] = test system: Colon; test: NCI GI50 on tumor cells, colon; format: cell-based, human; settings: Colon cell lines; NA = inactive products
Protocol: as §1

[6] = test system: Kidney; test: NCI GI50 on tumor cells, kidney; format: cell-based, human; settings: Kidney cell lines; NA = inactive products
Protocol: as §1

[7] = test system: Ovary; test: NCI GI50 on tumor cells, ovary; format: cell-based, human; settings: Ovary cell lines; NA = inactive products
Protocol: as §1

[8] = test system: Microcitoma; test: NCI GI50 on tumor cells, microcitoma; format: cell-based, human; settings: Microcitoma cell lines; NA = inactive products
Protocol: as §1

[9] = test system: MCF7 breast, NCI-H460 microcitoma and SF-268 SNC; test: NCI preliminary tests on three cell lines, mean GI50; format: cell-based, human; settings: mean concentration causing 50% inhibition of cell growth; N.A. = inactive in preliminary tests on three cell lines
Protocol: as §1
Table 1 reports the GI50, namely the mean concentration (μM) of substance which causes a 50% inhibition on the cell growth in preliminary tests carried out on three cell lines (MCF7 breast, NCI-H460 microcitoma and SF-268 SNC).

[10] = test system: Melanoma; test: NCI GI50 on tumor cells, melanoma; format: cell-based, human; settings: Melanoma cell lines; NA = inactive products
Protocol: as §1

[11] = test system: Prostate; test: NCI GI50 on tumor cells, prostate; format: cell-based, human; settings: Prostate cell lines; NA = inactive products
Protocol: as §1

`c1ccc2c(c1)Cc1c(-c3nnco3)c[nH]c1-2` [Ia, 3-[[1,3,4]Oxadiazol-2′-yl]-1,4-dihydro-indeno[1,2-b]pyrrole] was tested, and the GI50 [1] was 79.7 µM, the “GI50 Mean” value [2] was 74.1 µM and the GI50 [3] was 86.7 µM. It also gave a GI50 [4] of 73.2 µM, a GI50 [5] of 81.2 µM and a GI50 [6] of 67.3 µM. The GI50 [7] was 81.2 µM, the GI50 [8] was 57.8 µM and the “GI50 μM) Mean” value [9] was 74.1 µM. The GI50 [10] was 77.3 µM.

`Cc1nnc(-c2c[nH]c3c2Cc2ccccc2-3)o1` [Ib, 3-[[1,3,4]oxadiazole-5′-methyl-2′-yl]-1,4-dihydro-indeno[1,2-b]pyrrole] was tested, and the GI50 [1] was 81.3 µM, the “GI50 Mean” value [2] was 75.8 µM and the GI50 [3] was 75.8 µM. The GI50 [4] was 77.6 µM, the GI50 [6] was 91.2 µM and the GI50 [7] was 30.2 µM. The GI50 [8] was 93.3 µM, the “GI50 μM) Mean” value [9] was 75.8 µM and the GI50 [10] was 79.4 µM.

For `c1ccc(-c2nnc(-c3c[nH]c4c3Cc3ccccc3-4)o2)cc1` [Ic, 3-[[1,3,4]oxadiazole-5′-phenyl-2′-yl]-1,4-dihydro-indeno[1,2-b]pyrrole], the GI50 [1] was 1.82 µM, the antiproliferative activity [2] was “significant antiproliferative activity” and the “GI50 Mean” value [2] was 2.9 µM. The GI50 [3] was 2.95 µM, the GI50 [4] was 3.16 µM and the GI50 [5] was 1 µM. It also gave a GI50 [6] of 6.31 µM, a GI50 [11] of 4.78 µM and a GI50 [7] of 4.57 µM. For the same molecule, the GI50 [8] was 3.39 µM, the “GI50 μM) Mean” value [9] was 2.9 µM and the GI50 [10] was 2.34 µM.

For `c1ccc2c(c1)CCc1c(-c3nnco3)c[nH]c1-2` [Ie, 3-[[1,3,4]oxadiazol-2′-yl]-4,5-dihydro-1H-benzo[g]indole], the GI50 [1] was 26.3 µM, the “GI50 Mean” value [2] was 26.3 µM and the GI50 [3] was 28.2 µM. For the same molecule, the GI50 [4] was 27.5 µM, the GI50 [5] was 25.7 µM and the GI50 [6] was 27.5 µM. The GI50 [11] was 32.3 µM, the GI50 [7] was 28.2 µM and the GI50 [8] was 21.8 µM. The “GI50 μM) Mean” value [9] was 26.6 µM and the GI50 [10] was 28.8 µM.

For `c1ccc2c(c1)ccc1c(-c3nnco3)c[nH]c12` [Ih, 3-[[1,3,4]oxadiazol-2′-yl]-1H-benzo[g]indole], the GI50 [1] was 44.6 µM, the “GI50 Mean” value [2] was 35.4 µM and the GI50 [3] was 32.3 µM. It also gave a GI50 [4] of 40 µM, a GI50 [5] of 33.8 µM and a GI50 [6] of 38 µM. It also gave a GI50 [11] of 62.3 µM, a GI50 [7] of 38.9 µM and a GI50 [8] of 22.3 µM. For the same molecule, the “GI50 μM) Mean” value [9] was 35.4 µM and the GI50 [10] was 33.8 µM.

For `c1ccc(-c2nnc(-c3c[nH]c4c3ccc3ccccc34)o2)cc1` [Il, 3-[[1,3,4]oxadiazole-5′-phenyl-2′-yl]-1H-benzo[g]indole], the GI50 [1] was 0.64 µM, the antiproliferative activity [2] was “significant antiproliferative activity” and the “GI50 Mean” value [2] was 1.28 µM. The GI50 [3] was 1.21 µM, the GI50 [4] was 0.6 µM and the GI50 [5] was 0.7 µM. The GI50 [6] was 2.04 µM, the GI50 [11] was 1.28 µM and the GI50 [7] was 1.7 µM. The GI50 [8] was 2.36 µM, the “GI50 μM) Mean” value [9] was 1.28 µM and the GI50 [10] was 2.71 µM.

For `Cn1cc(-c2nnco2)c2ccc3ccccc3c21` [Im, 1-methyl-3-[[1,3,4]oxadiazol-2′-yl]-1H-benzo[g]indole], the GI50 [1] was 54.9 µM, the “GI50 Mean” value [2] was 33.1 µM and the GI50 [3] was 23.9 µM. It also gave a GI50 [4] of 44.6 µM, a GI50 [5] of 38.9 µM and a GI50 [6] of 20.8 µM. For the same molecule, the GI50 [11] was 54.9 µM, the GI50 [7] was 41.6 µM and the GI50 [8] was 17.7 µM. For the same molecule, the “GI50 μM) Mean” value [9] was 33.1 µM and the GI50 [10] was 43.6 µM.
